Patent US11773062B2, “Deuterated compounds” (priority 2021, dated 2023)

Legend:
[1] = Human liver mitochondrial fraction intrinsic clearance of SPL026, SPL028i, SPL028iii, SPL028viii; format: in vitro ADME; conditions: 0.5 mg/mL human liver mitochondrial fraction (Table 10)
Description: Human Liver Mitochondrial (HLMt) fractions contain high quantities of MAO enzymes and therefore, provide a useful tool to measure the clearance of MAO substrates.

[2] = In vitro mouse hepatocytic intrinsic clearance; conditions: male, CD-1, mouse, hepatocytes
[3] = system: human (mixed gender) hepatocytes; assay: In vitro intrinsic clearance in human hepatocytes with and without MAO-A/B inhibitor combination (first experiment); conditions: for % change in half-life, MAO inhibitors vs no inhibitors / % change in intrinsic clearance, MAO inhibitors vs no inhibitors: human hepatocytes (Table 5)
Protocol: Standard final incubation conditions are 1 μM compound in buffer containing nominally ˜0.5 million viable cells/mL, ˜0.9% (v/v) acetonitrile (MeCN) and ˜0.1% (v/v) DMSO (specific assay concentrations outlined above, section 2).
Samples are then centrifuged at 4° C.

[4] = system: mouse (male CD-1) hepatocytes; assay: In vitro mouse hepatocytic intrinsic clearance; conditions: mouse CD-1 hepatocytes 0.367 million cells/mL, 5 μM (Table 8)
CYP1A2 = target: T1, CYP1A2 (Homo sapiens, UniProt P05177); assay: in vitro; conditions: human, recombinant enzyme, pH 7.4
T1 sequence (P05177 1-516): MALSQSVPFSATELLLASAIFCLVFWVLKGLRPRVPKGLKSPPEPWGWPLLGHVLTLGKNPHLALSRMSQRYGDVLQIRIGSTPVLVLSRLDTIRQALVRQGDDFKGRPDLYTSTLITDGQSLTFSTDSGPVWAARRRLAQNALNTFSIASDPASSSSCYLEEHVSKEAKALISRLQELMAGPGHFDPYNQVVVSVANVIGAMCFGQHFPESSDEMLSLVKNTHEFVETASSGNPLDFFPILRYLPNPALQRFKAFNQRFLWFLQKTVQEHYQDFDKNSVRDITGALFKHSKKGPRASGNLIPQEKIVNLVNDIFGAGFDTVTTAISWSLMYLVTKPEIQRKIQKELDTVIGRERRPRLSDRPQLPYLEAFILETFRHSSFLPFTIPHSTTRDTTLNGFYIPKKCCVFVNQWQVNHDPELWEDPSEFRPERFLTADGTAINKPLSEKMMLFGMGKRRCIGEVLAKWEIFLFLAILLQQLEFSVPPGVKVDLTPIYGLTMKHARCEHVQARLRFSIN
Protocol: (§1) Samples were taken at predetermined time points.
(§2) Samples were then centrifuged at −4° C.
(§3) Positive control markers are as specified in Table 11.

CYP2C8 = target: T2, CYP2C8 (Homo sapiens, UniProt P10632); assay: in vitro; conditions: human, recombinant enzyme, pH 7.4
T2 sequence (P10632 1-490): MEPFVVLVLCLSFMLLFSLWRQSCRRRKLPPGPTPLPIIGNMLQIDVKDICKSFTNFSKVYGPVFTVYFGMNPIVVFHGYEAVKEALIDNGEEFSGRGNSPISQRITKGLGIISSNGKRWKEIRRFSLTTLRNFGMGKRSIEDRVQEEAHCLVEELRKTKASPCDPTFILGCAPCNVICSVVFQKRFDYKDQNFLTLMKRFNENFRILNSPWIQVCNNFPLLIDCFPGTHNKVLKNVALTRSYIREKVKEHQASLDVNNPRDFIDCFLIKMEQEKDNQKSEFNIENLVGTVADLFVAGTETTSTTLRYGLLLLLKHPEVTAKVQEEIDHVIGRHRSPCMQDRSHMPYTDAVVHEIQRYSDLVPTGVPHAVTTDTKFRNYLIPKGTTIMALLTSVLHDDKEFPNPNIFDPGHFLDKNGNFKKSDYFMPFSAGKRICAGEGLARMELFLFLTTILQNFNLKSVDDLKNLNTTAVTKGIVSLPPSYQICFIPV
Protocol: as §1, §2, §3

CYP2C9 = CYP2C9 (Homo sapiens, UniProt P11712); assay: in vitro; conditions: human, recombinant enzyme, pH 7.4
Sequence of CYP2C9 (P11712 whole entry): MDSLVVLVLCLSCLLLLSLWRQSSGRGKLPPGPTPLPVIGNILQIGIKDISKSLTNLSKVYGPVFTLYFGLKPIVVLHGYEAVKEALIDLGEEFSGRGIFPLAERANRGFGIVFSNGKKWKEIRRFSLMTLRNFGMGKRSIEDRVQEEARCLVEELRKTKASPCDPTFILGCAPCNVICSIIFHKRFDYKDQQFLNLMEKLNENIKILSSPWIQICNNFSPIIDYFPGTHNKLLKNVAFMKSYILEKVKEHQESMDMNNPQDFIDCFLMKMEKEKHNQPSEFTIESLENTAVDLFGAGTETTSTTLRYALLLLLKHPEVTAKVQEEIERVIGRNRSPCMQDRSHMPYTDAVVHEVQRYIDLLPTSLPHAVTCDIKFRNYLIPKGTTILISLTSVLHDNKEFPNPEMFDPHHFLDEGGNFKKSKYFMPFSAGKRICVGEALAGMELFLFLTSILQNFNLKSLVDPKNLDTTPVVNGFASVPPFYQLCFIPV
Protocol: as §1, §2, §3

CYP3A5 = CYP3A5 (Homo sapiens, UniProt P20815); assay: in vitro; conditions: human, recombinant enzyme, pH 7.4
Sequence of CYP3A5 (P20815 whole entry): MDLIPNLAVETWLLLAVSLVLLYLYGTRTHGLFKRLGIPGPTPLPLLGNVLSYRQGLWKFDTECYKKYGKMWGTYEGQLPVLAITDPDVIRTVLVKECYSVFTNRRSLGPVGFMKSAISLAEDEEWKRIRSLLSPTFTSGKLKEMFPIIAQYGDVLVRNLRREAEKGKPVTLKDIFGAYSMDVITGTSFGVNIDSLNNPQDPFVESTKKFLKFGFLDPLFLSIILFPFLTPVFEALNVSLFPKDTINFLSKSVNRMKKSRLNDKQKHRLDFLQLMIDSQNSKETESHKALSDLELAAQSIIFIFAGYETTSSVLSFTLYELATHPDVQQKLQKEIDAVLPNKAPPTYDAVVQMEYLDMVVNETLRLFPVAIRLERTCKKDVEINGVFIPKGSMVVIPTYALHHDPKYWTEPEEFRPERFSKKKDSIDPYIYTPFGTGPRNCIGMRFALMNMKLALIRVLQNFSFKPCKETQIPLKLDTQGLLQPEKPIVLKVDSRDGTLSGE
Protocol: as §1, §2, §3

CYP3A4 = CYP3A4 (Homo sapiens, UniProt P08684); assay: in vitro; conditions: human, recombinant enzyme, pH 7.4
Sequence of CYP3A4 (P08684 whole entry): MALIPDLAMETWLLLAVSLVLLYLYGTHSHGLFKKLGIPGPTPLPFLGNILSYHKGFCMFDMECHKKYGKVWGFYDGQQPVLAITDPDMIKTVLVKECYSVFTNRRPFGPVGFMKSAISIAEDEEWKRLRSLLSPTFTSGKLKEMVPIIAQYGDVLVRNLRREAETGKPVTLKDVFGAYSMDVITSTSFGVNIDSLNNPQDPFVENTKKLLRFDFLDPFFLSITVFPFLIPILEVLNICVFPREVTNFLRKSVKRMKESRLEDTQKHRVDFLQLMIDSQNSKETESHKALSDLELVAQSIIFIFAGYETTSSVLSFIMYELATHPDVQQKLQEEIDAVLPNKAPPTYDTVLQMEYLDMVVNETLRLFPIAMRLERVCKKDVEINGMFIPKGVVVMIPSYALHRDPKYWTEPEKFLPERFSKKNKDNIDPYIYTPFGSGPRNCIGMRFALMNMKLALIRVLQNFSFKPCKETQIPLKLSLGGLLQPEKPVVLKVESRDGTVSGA
Protocol: as §1, §2, §3

CYP2C19 = CYP2C19 (Homo sapiens, UniProt P33261); assay: in vitro; conditions: human, recombinant enzyme, pH 7.4
Sequence of CYP2C19 (P33261 whole entry): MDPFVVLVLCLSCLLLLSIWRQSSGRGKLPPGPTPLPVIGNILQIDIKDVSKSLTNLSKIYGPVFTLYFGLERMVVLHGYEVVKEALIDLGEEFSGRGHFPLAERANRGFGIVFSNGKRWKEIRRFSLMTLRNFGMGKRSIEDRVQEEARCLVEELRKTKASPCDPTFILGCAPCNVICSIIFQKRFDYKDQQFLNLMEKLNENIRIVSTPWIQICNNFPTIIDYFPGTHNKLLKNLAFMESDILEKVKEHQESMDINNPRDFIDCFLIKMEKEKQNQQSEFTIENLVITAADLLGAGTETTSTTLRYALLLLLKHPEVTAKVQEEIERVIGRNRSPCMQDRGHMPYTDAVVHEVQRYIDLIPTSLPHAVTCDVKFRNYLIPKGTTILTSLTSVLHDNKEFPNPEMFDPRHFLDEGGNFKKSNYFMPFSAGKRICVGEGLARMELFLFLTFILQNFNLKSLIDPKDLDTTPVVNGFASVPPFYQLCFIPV
Protocol: as §1, §2, §3

[5] = human hepatocytes, with 100 nM clorgyline + 100 nM deprenyl/selegiline (Table 3)
[6] = human hepatocytes, with MAO-A/B inhibitor combination (Table 5)
[7] = human hepatocytes, without MAO-A/B inhibitor combination (Table 5)
[8] = human hepatocytes, with MAO-A/B inhibitors (Table 4; unit given only in Table 5)

SMILES | % change in half-life, MAO inhibitors vs no inhibitors [3] | % change in intrinsic clearance, MAO inhibitors vs no inhibitors [3] | Intrinsic clearance, with inhibitors [3, 5] | Intrinsic clearance, with inhibitors [3, 6] | Intrinsic clearance, without inhibitors [3, 7] | w Half-life [4] | w Intrinsic clearance [4] | further results
[2H]C([2H])([2H])N(C([2H])([2H])[2H])C([2H])([2H])Cc1c[nH]c2ccccc12 [SPL028viii, α,α,bis-deuterio-N,N-hexadeuterio-dimethyltryptamine] |  |  |  |  |  |  |  | Intrinsic Clearance [1]: 10.9 μL/min/mg protein
COc1ccc([C@@H]2Sc3ccccc3N(CCN(C)C)C(=O)[C@@H]2OC(C)=O)cc1 [Diltiazem, reference compound] |  |  |  |  |  |  |  | half-life at 5 μM [2]: < 3 min; hepatocyte CLint at 5 μM [2]: > 460 µL/min/1e6 cells
[2H]C([2H])(Cc1c[nH]c2ccccc12)N(C)C [SPL028v, α,α,-bis-deuterium-N,N-dimethyltryptamine] | 11.47% | −15.56% | 9.51 μL/min/million cells | 9.51 μL/min/million cells | 10.99 μL/min/million cells | 16.1 min | 117.7 μL/min/million cells | 
[2H]C([2H])(Cc1c[nH]c2ccccc12)N(C)C [SPL028iii, α,α,-bis-deuterium-N,N-dimethyltryptamine] | 25.93% | −35.65% | 6.90 μL/min/million cells | 6.9 μL/min/million cells | 9.36 μL/min/million cells | 17.9 min | 106.2 μL/min/million cells | Half-life, with inhibitors [3, 6]: 189.6 min; Half-life, with inhibitors [3, 8]: 189.60 min; Intrinsic Clearance [1]: 15.0 μL/min/mg protein; half-life [1]: 31.1 min
Nc1c2c(nc3ccccc13)CCCC2 [Tacrine, reference compound] |  |  |  |  |  |  |  | half-life (CYP1A2): 37 min; intrinsic clearance, CYP isoform 1A2 (CYP1A2): 189 μL/min/nmol CYP
[2H]C([2H])(Cc1c[nH]c2ccccc12)N(C)C [SPL028iv, α,α,-bis-deuterium-N,N-dimethyltryptamine] | 31.74% | −49.33% | 7.46 μL/min/million cells | 7.46 μL/min/million cells | 11.14 μL/min/million cells | 17.7 min | 106.9 μL/min/million cells | change in intrinsic clearance with the inclusion of MAO inhibitors ([3]; human hepatocytes): 49%; Half-life, with inhibitors [3, 6]: 171.17 min; Half-life, with inhibitors [3, 8]: 171.17 min
CC(C)(O)c1ccccc1CC[C@@H](SCC1(CC(=O)O)CC1)c1cccc(/C=C/c2ccc3ccc(Cl)cc3n2)c1 [Montelukast, reference compound] |  |  |  |  |  |  |  | half-life (CYP2C8): 62 min; intrinsic clearance, CYP isoform 2C8 (CYP2C8): 122 μL/min/nmol CYP
O=C(O)Cc1ccccc1Nc1c(Cl)cccc1Cl [Diclofenac, reference compound] |  |  |  |  |  |  |  | half-life (CYP2C9): 1 min; intrinsic clearance, CYP isoform 2C9 (CYP2C9): 4731 μL/min/nmol CYP; half-life at 5 μM [2]: 34.1 min; hepatocyte CLint at 5 μM [2]: 57.7 µL/min/1e6 cells
[2H]C([2H])(Cc1c[nH]c2ccccc12)N(C)C [SPL028vi, α,α,-bis-deuterium-N,N-dimethyltryptamine] | 20.55% | −26.41% | 10.79 μL/min/million cells | 10.79 μL/min/million cells | 13.64 μL/min/million cells | 16.6 min | 114.0 μL/min/million cells | Half-life, without inhibitors ([3]; human hepatocytes, without MAO inhibitors (Table 4; unit given only in Table 5)): 95.04 min; Half-life, without inhibitors [3, 7]: 95.04 min
Cc1ncc2n1-c1ccc(Cl)cc1C(c1ccccc1F)=NC2 [Midazolam, reference compound] |  |  |  |  |  |  |  | half-life (CYP3A5): 11 min; intrinsic clearance, CYP isoform 3A5 (CYP3A5): 623 μL/min/nmol CYP; half-life (CYP3A4): 5 min; intrinsic clearance, CYP isoform 3A4 (CYP3A4): 1369 μL/min/nmol CYP
CC(C)NCC(O)COc1cccc2ccccc12 (centres unmarked) [Propranolol, reference compound] |  |  |  |  |  |  |  | half-life (CYP2C19): 12 min
